A short description of data set [1]: Photophysical property characterization (absorption/emission spectra, quantum yield). It counts as physicochemical. The note with it: for λAbs b, spectra assays data / λEm b, spectra assays data / ε: acetonitrile (MeCN); for λAbs b, spectra assays data / λEm b, spectra assays data: 10 µM, Extended Data Table 1; for ε: in M-1·cm-1 (unit assumed). Here is the method:
For absorption and emission spectra measurements, the molecules were diluted to 10 µM in various solvents, including EtOH, DMSO, MeCN, H2O, and MeOH. Prior to analysis, the prepared samples were equilibrated at 25°C for 5 min to ensure consistent conditions. Subsequently, their absorption and emission spectra were measured. The absolute fluorescence quantum yield of these probes was measured using the FLS1000 Photoluminescence Spectrometer (Edinburgh Instruments Ltd.).

Data set [2] in a line: Photostability evaluation under continuous excitation. The format is physicochemical. The note with it: 3 h illumination, PBS with 10% DMSO. As to the method: For photostability evaluation, PE859, 859‐1, or 859‐1 were diluted to 10 µM in PBS containing 10% DMSO. The solutions were loaded into a fluorescence spectrometer and the fluorescent intensity at maximum emission wavelength was recorded under continuous excitation for 180 min.

In data set [3] the target is T1, tau aggregates (Homo sapiens, UniProt P10636).
T1 construct: purchased QYAOBIO
As to the kind of experiment: Dissociation constant measurement by fluorescence titration. It counts as binding. Conditions: tau aggregates titrated with probe, 37°C 1 h. Here is the method: The human recombinant tau protein (1 mg, QYAOBIO) was dissolved in PBS containing 110 µM heparin sodium to a final concentration of 55 µM. The solution was shake vigorously (100 rpm, Crystal IS‐RDV1) at 37°C for 72 h. Similarly, the human recombinant TDP‐43 protein (0.9 mg, Sangon Biotech) was dissolved in 1 mL Tris buffer (50 mM Tris, 300 mM NaCl, 10% Glycerol, pH 8.0) and was shake vigorously (200 rpm, Crystal IS‐RDV1) at 37°C for 48 h. Aggregates formation was monitored and verified using ThT fluorescence assay. The resulting aggregates was divided into aliquots and stored at −20°C before use.
To 1 µM protein solution in PBS containing 10% DMSO, different concentrations of probe was added (final concentration 0, 1, 2, 5, 8, 10, 20, 50, 80, 100, 200, 500, 800, and 1000 nM). The mixture was dispensed into 96‐well plates and incubated at 37°C for 1 h. The fluorescence intensity of the samples was recorded at maximum emission wavelength of probe by using a microplate reader (PerkinElmer, VICTOR Nivo^TM). Dose‐ response curves were generated by plotting fluorescence intensity against probe concentration, and equilibrium dissociation constants were calculated via nonlinear regression analysis in GraphPad Prism.

Data set [4] is described as follows: Selectivity evaluation (fluorescence response to non-target analytes). The note with it: probe 1 µM, analytes 2 µM, 60 min. As to the method:
For selectivity evaluation, the probes were diluted to a final concentration of 1 µM and treated with 2 µM of various analytes. After 60 min of incubation at room temperature, fluorescence intensity was recorded at the specific excitation and emission wavelengths for each probe. The maximum emission wavelength intensity was plotted against the respective analytes.

For data set [5], the target named is T1, tau aggregates. As to the kind of experiment: Fluorescence turn-on response / spectral assay with tau aggregates. The format is binding. As to the method: (§1) To evaluate the fluorescence turn‐on responses to targets, protein (2 µM) were incubated with probe solutions (2 µM, PBS containing 10% DMSO) for 60 min at room temperature. For probe B3, specific experiments involved co‐incubation of 5 µM B3 with 10 µM TDP‐43 aggregates for 60 min.

The target of data set [6] is tau aggregates in AD brain sections (Homo sapiens, UniProt P10636). The data set is described as follows: Pathological staining, colocalization with anti-tau antibody. As to the method:
(§2) Human brain tissues of AD or ALS patients and human neuroblastoma tissues were immersed in xylene three times for 5 min to remove paraffin, followed by two 10 min washes with a series of diluted alcohols (100, 90%, 70%, and 50% ethanol in dd water, v/v). Following PBS washing, heat‐mediated antigen retrieval was per‐ formed in 10 mM citrate buffer (pH 9.0) using a temperature‐gradient protocol: samples were gradually heated to boiling point through sequential low‐to‐high intensity thermal exposure (total 15 min duration), followed by natural cooling to ambient temperature. […] To avoid the fluorescence overlap between antibody staining and probe labeling, specific secondary antibodies were selected. […]
(§3) The fluorescence images of tissues were acquired by a scanning microscope (KF‐FL‐020, KFBIO).
(§4) All experiments were conducted over 3–5 independent experiments, and error bars represent the S.E.M across these runs. […] Statistical analysis was performed using GraphPad Prism 8.3.0, with significance determined by one‐way ANOVA followed by Tukey's or Dunnett's post hoc tests. […] Colocalization analysis was performed using the Pearson's correlation coefficient (PCC) calculated via ImageJ software.

Data set [7] addresses T2, TDP-43 aggregates in ALS brain sections (Homo sapiens, UniProt Q13148).
T2 construct: from tissue; host or cells: paraffin sections of human ALS patient brain
As to the kind of experiment: Pathological staining, colocalization with anti-TDP-43 antibody. Conditions: brain sections from an ALS patient. Here is the method: as §2, §3, §4

Data set [8] addresses T3, TDP-43 aggregates (Homo sapiens, UniProt Q13148).
T3 construct: purchased Sangon Biotech
As to the kind of experiment: Fluorescence turn-on response / spectral assay with TDP-43 aggregates. The format is binding. Here is the method:
as §1

In data set [9] the test system is tau. The note with it: previous reports; ref [36], [37], [38]; cited from earlier work.
Data set [10] concerns the target T4, BCL-2 in U2932 and SU-DHL-6 cells (Homo sapiens, UniProt P10415).
T4 construct: endogenous in cells; host or cells: U2932 and SU-DHL-6
As to the kind of experiment: Cell imaging with anti-BCL-2 co-staining. The format is cell-based. Conditions: U2932 and SU-DHL-6, 5 µM obatoclax. As to the method:
Cells of the logarithmic growth phase were taken and transferred them to centrifuge tubes (5 × 10^4 cells/mL). After centrifugation, the culture medium was discarded. Cells were washed once with PBS, centrifuged, and the supernatant aspirated. One milliliter of ice methanol was added, followed by gentle resuspension and fixation for 30 min. After centrifugation, the supernatant was discarded, and cells were washed twice with PBS. Subsequently, 500 µL of 5% BSA blocking solution was added, and cells were gently resuspended before transfer to a 35‐mm confocal dish for sealing and incubation at room temperature for 1 h. The cell suspension was then added into a centrifuge tube, centrifuged to remove blocking solution, and resuspended in 500 µL of primary antibody solution (Proteintech, 12789‐1‐AP, 1:500). Cells were transferred to a confocal dish and incubated overnight at 4°C. After centrifugation to remove primary antibody, cells were washed twice with PBS. Next, 500 µL of secondary antibody (Beyotime, A0468, 1:500) was added, followed by incubation at room temperature for 1 h. Following centrifugation, the cells were washed twice with PBS and stained with 500 µL of DAPI solution (Beyotime, C1006) for 10 min at room temperature. […] After centrifugation, cells were washed twice with PBS, resuspended in 1 mL PBS, transferred to a confocal dish, and imaged with a laser confocal microscope.

The test system of data set [11] is SU-DHL-6 lymphoma xenografts. As to the kind of experiment: Tumor model ex vivo fluorescence imaging. The format is in vivo, mice. The note with it: 10 mg/kg i.v., 4 h post-injection. As to the method:
SU-DHL-6 cells were suspended in 100 μL of 50% Matrigel / PBS mixture. Hun dred microliters of SU-DHL-6 cell suspensions, corresponding to 1.8 × 10^6 cells per mouse, were subcutaneously injected into the left flank region of NSFG mice (female, aged 8-10 weeks). The mice were monitored for tumor formation. […] Mice were sacrificed after 4 h and tissues (heart, liver, spleen, lung, kidney, and tumor) were obtained. The fluorescence signals in tissues were recorded using the […] imaging system.

Data set [12] has as its target T5, BCL-2 in neuroblastoma tumor tissue sections (Homo sapiens, UniProt P10415).
T5 construct: from tissue; host or cells: human neuroblastoma tissue sections
As to the kind of experiment: Pathological staining, colocalization with anti-BCL-2 antibody. Here is the method:
as §2, §3, §4

Data set [13] addresses T6, BCL-2 (Homo sapiens, UniProt P10415). The note with it: previous reports; ref [36], [37], [38]; cited from earlier work.
In data set [14] the target is T6, BCL-2. The data set is described as follows: Fluorescence turn-on response / spectral assay with BCL-2. It counts as binding. As to the method: as §1

Data on 6 compounds can be found in publication PMC12915096, “AI‐Driven Acceleration of Fluorescence Probe Discovery” (Advanced Science, 2025).

pIC50, pKd, pKi: −log10 of the molar value.

T6 sequence (P10415 whole entry, species assumed): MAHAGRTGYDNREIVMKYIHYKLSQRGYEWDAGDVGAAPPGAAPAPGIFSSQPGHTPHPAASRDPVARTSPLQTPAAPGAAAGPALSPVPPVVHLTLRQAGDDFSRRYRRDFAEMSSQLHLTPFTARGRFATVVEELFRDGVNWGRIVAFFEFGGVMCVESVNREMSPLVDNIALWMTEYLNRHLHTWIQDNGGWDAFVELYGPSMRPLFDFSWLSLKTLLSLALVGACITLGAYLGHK
T1 sequence (P10636 1-441 isoform P10636-8): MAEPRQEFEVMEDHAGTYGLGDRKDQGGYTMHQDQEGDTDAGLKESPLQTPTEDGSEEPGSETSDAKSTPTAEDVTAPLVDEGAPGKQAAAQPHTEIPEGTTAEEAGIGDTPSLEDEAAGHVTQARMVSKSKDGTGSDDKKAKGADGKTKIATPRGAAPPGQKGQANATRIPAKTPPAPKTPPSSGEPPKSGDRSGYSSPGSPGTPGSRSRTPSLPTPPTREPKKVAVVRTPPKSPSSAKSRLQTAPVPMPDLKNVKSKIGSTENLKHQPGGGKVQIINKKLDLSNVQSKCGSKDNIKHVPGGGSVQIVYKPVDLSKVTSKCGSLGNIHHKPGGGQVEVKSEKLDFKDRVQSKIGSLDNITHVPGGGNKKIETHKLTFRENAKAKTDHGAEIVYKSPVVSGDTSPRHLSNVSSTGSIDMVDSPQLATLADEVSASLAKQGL
T3 sequence (Q13148 whole entry): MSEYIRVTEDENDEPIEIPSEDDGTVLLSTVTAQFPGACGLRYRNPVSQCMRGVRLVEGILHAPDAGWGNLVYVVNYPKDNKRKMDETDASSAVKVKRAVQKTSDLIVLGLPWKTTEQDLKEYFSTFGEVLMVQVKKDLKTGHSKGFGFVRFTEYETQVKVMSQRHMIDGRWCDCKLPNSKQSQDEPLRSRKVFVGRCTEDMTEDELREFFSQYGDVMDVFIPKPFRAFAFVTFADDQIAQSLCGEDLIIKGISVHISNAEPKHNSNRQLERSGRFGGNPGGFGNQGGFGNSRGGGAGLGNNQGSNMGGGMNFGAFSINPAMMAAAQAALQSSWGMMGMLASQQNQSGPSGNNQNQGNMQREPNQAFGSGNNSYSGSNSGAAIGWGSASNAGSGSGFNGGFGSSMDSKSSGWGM
Chain of tau aggregates in AD brain sections (P10636 623-695 limits assumed): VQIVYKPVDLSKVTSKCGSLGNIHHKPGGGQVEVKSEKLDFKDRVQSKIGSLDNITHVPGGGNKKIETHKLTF
T2 sequence (Q13148 whole entry): as the sequence (Q13148 whole entry) above
T4 sequence (P10415 whole entry): as the sequence (P10415 whole entry, species assumed) above
T5 sequence (P10415 whole entry): as the sequence (P10415 whole entry, species assumed) above

As for `COc1cc(OCc2ccccn2)ccc1/C=C/C1=[O+][B-](F)(F)OC(/C=C/c2ccc3cc[nH]c3c2)=C1` [859-1], the λAbs in data set [1] (DMSO) was 539 nm; in data set [1] (EtOH, Extended Data Table 5), 513 nm; in data set [1] (H2O, Extended Data Table 5), 510 nm; in data set [1] (MeCN, Extended Data Table 5) it was 514 nm; in data set [1] (MeOH, Extended Data Table 5) it was 514 nm. Moreover, the λEm worked out at 610 nm in data set [1] (DMSO); 588 nm in [1] (EtOH, Extended Data Table 5); 594 nm in data set [1] (MeCN, Extended Data Table 5); 595 nm in [1] (MeOH, Extended Data Table 5). Moreover, the “Emission redshift compared to PE859” value in data set [1] (MeCN) stood at 192 nm. In addition, the Quantum yield experimental in data set [1] (MeCN) is given as 0.0063. In addition, the log10ε experimental in data set [1] (MeCN) was 4.9784. Besides, the “Fluorescence intensity variation under continuous illumination” value in data set [2] was found to be 152%. This compound also gave a pKd in [3] of 6.66. The “Fluorescence response to non-target analytes (selectivity)” value in data set [4] is “minimal response to other analytes”. Moreover, the “Fluorescence turn-on response to tau aggregates” value in data set [5] was “substantially increased fluorescence intensity”. Also, the “Emission redshift when incubated with tau aggregates” value in data set [5] (probe 2 µM, tau aggregates 4 µM) came out at 6 nm. Further, the “Pearson Correlation Coefficient (PCC) with anti-tau antibody staining” value in [6] is 0.95.
For `Cc1ccc(Cl)cc1NC(=O)c1cc2c(=O)n3cccc(C)c3nc2n1C` [B3], the “PCC with anti-TDP-43 antibody staining” value in data set [7] is on record as 0.95. In [1] (MeCN), the Quantum yield experimental was 0.2891 and the log10ε experimental came out at 4.2923. In [1], the “λAbs b, spectra assays data” value is recorded as 370 nm; the “λEm b, spectra assays data” value was 443 nm; the ε worked out at 19600. In addition, in data set [8], the “Blue shift of emission upon interaction with TDP-43 aggregates” value is 30 nm and the “Fluorescence turn-on response to TDP-43 aggregates” value was “most significant fluorescence enhancement”.
`Cn1c(C(=O)Nc2ccc(OC(F)(F)F)cc2)cc2c(=O)n3ccccc3nc21` [B5]: in [1], the “λAbs b, spectra assays data” value worked out at 382 nm; the “λEm b, spectra assays data” value is reported as 450 nm; the ε turned out to be 19800.
For `Cc1ccc(-n2c(/C=C\c3ccc(F)c(F)c3)nc3ccccc3c2=O)c(C)c1` [B6], in that order: 330 nm, 450 nm and 20200.
On to `COc1cc(OCc2ccccn2)ccc1/C=C/c1cc(/C=C/c2ccc3cc[nH]c3c2)[nH]n1` [PE859], for which the λAbs in data set [1] (DMSO) worked out at 343 nm; in data set [1] (EtOH, Extended Data Table 5) it was 335 nm; in data set [1] (H2O, Extended Data Table 5), 352 nm; in [1] (MeCN, Extended Data Table 5) it was 338 nm; in data set [1] (MeOH, Extended Data Table 5), 337 nm. In addition, the λEm in [1] (DMSO) is listed as 408 nm; in data set [1] (EtOH, Extended Data Table 5), 397 nm; in data set [1] (H2O, Extended Data Table 5) it was 422 nm; in data set [1] (MeCN, Extended Data Table 5), 402 nm; in data set [1] (MeOH, Extended Data Table 5), 410 nm. The Quantum yield experimental in data set [1] (MeCN) was determined as 0.1223. The compound further yielded a log10ε experimental in [1] (MeCN) of 4.9675. In addition, in [1], the “λAbs b, spectra assays data” value came out at 335 nm. The ε in [1] was 92780. Moreover, the “Blue shift in emission maximum upon binding to tau aggregates” value in data set [5] is 10 nm. Further, the “Fluorescence turn-on response to tau aggregates” value in data set [5] is “most significant fluorescence enhancement”. Also, the pIC50 in [9] is 6.18. In addition, the “Pearson Correlation Coefficient (PCC) with anti-tau antibody staining” value in [6] turned out to be 0.85.
For `COC1=CC(c2cc3ccccc3[nH]2)=N/C1=C\c1[nH]c(C)cc1C` [obatoclax], the “Detection of BCL-2 in overexpressing cell lines” value in data set [10] is given as “effectively detected”. In addition, in [1] (MeCN), the Quantum yield experimental is reported as 0.0069 and the log10ε experimental worked out at 4.5902. Besides, in data set [1], the “λAbs b, spectra assays data” value stood at 480 nm; the “λEm b, spectra assays data” value worked out at 540 nm; the ε is 38920. Moreover, in data set [11], the “Accumulation in tumors versus other organs” value was “higher accumulation in tumors compared to other organs”. In addition, in [12], the “PCC with anti-BCL-2 antibody staining” value is listed as 0.80. For the same compound, the pKi in [13] was 6.66. Further, in data set [14], the “Blue shift of emission in the presence of BCL-2” value came out at 7 nm and the “Fluorescence turn-on response to BCL-2” value was “most significant fluorescence enhancement”.

For orientation: pKd means the negative decadic logarithm of the Kd, by convention in mol/L. Low readings indicate a large Kd, high ones a small Kd. For orientation: pIC50 means the IC50 on a negative log10 scale, so that one unit is a factor of ten. What is called pKi is the Ki on a negative log10 scale, so that one unit is a factor of ten.
